Values quoted from earlier work as cited in patent US9011962B2, “Bovine meat compositions having enhanced quality, nutritive and health values obtained from enrichment diets” (priority 2007, dated 2015).

How the values were obtained:
[1] = in vivo

Bioavailability (relative) [1] | Structure (SMILES) | upper limit from food and supplements likely to pose no risk of adverse health effects (FDA) | safe daily intake for human use (Rayman review) | lowest-observed adverse effect level of selenium intake (recognized by FDA) | no-observed adverse effect level (recognized by FDA)
– | [Se] [selenium] | 400 micrograms per day | approximately 15 micrograms per kilogram body weight per day | 900 micrograms per day | 800 micrograms per day
245 | C[Se]CC[C@H](N)C(=O)O [Selenomethionine, selenomethionine] | – | – | – | –
